Test [1] deals with Crabgrass (CG). The test is described as follows: Pre-emergence herbicide test. The class given is in vivo, Digitaria sanquinalis. As to conditions: Digitaria sanguinalis, pre-emergence, 336 h; 8 lb/acre; two weeks after treatment. The gist of the method: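 Crabgrass (Digitaria sanquinalis) was surface seeded in 3' plastic pots of potting soil, covered with screened soil, and watered by sub-irrigation in greenhouse trays. Pots were seeded one day before spraying in a hood with a moving belt and fixed nozzle. Plants stayed in the greenhouse on sub-irrigation, and pre-emergence control was rated visually two weeks after treatment.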

Test [2] deals with Yellow foxtail grass (YF). The test is described as follows: Pre-emergence herbicide test. It counts as in vivo, Setaria glauca. To be noted: Setaria, 336 h, 8 lb/acre, two weeks after treatment. Here is the method:
(§1) Yellow foxtail grass (YF)--Setaria glauca
(§2) All crop and weed species were planted individually in 3' plastic pots containing potting soil. Four seeds each of corn, cotton, and snapbeans were seeded to a depth equal to the diameter of the seed. All other species were surface seeded and sprinkled with screened soil in an amount sufficient to cover the seed. Immediately after planting, all pots were watered by sub-irrigation in greenhouse trays. Pots for the pre-emergence phase were seeded one day before treatment.
(§3) Compounds were tested at rates of application equivalent to 8 lbs. of actual compound per acre in a spray volume of 38 gallons per acre. Spray hood constants required to deliver the above volume are as follows:
(§4) Formulations for spray applications were prepared in 50 ml volumes with the following three components:
(§5) Formulations for the 4 lbs/acre rate were prepared by adjusting the amount of active ingredient accordingly.
(§6) Spray applications were made in a hood containing a removable belt and fixed spray nozzle. For passage through the spray hood, one pot of each specie (pre-emergence phase) was placed on the rear half of the flat. Treatments were removed to the greenhouse after spraying. Watering during the observation period was done only by sub-irrigation.
(§7) Two weeks after treatment, pre- and post-emergence injury or control was visually rated, and the results were as shown in the following tables. Pre-emergence data are provided in TABLE III and post-emergence data are provided in TABLE IV, for compounds having the formula illustrated in TABLE I. Correspondingly, pre-emergence and post-emergence data, respectively, are set forth in TABLES V AND VI, for compounds having the formula illustrated in TABLE II.

Test [3] deals with Johnson grass (JG). The experiment in a line: Pre-emergence herbicide test. The class given is in vivo, Sorgum helepense. As to conditions: Sorghum halepense, 336 h, 8 lb/acre, two weeks after treatment. The gist of the method:
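Pots seeded one day before spraying; compound applied pre-emergence at 8 lbs/acre (or 4 lbs/acre) in 38 gallons/acre spray volume. Sub-irrigated in greenhouse; injury/control rated visually two weeks after treatment.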

Test [4] deals with Barnyard grass (BG). The experiment in a line: Pre-emergence herbicide test. The class given is in vivo. To be noted: Echinochloa crus-galli, 336 h, 8 lb/acre, two weeks after treatment. Put shortly: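 Barnyard grass surface-seeded in potting soil and sprayed pre-emergence one day after seeding, at 8 or 4 lb compound/acre in 38 gal/acre spray volume. Pots kept in greenhouse with sub-irrigation only; injury or control rated visually two weeks after treatment.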

The subject of test [5] is Amaranth pigweed (PW). The experiment in a line: Pre-emergence herbicide test. To be noted: 336 h, 8 lb/acre, two weeks after treatment. The class given is in vivo, Amaranthus retroflexus. The gist of the method:
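Pigweed was surface-seeded in potted soil one day before spraying at 8 lbs compound per acre, or 4 lbs/acre, in 38 gallons per acre. Pots were kept in the greenhouse with sub-irrigation only; injury or control was rated visually two weeks after treatment.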

Test [6] concerns Cotton (CT). The test is described as follows: Pre-emergence herbicide test. As to conditions: Gossypium hirsutum, 336 h, 8 lb/acre, two weeks after treatment. The class given is in vivo, Gossypium hirsutum var. DPL smooth leaf. The gist of the method: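 Crop and weed species seeded one day before treatment, then sprayed pre-emergence at 8 lbs actual compound per acre (also 4 lbs/acre formulations) in 38 gallons per acre. Pots kept in greenhouse with sub-irrigation only; injury or control visually rated two weeks after treatment.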

Test [7] relates to Corn (CN). The experiment in a line: Pre-emergence herbicide test. The class given is in vivo. As to conditions: Zea mays, 336 h, 8 lb/acre, two weeks after treatment. Put shortly: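 Four corn seeds per pot, sown at seed-diameter depth one day before spraying, got soil surface treatment at 8 lbs/acre (4 lbs/acre formulations also prepared) in 38 gallons/acre. Pots were greenhouse-held with sub-irrigation only. Injury or control was scored visually two weeks after treatment.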

The subject of test [8] is Bean (BN). The test is described as follows: Pre-emergence herbicide test. It counts as in vivo, Phaseolus vulgaris var. Black Valentine. To be noted: Phaseolus vulgaris, 336 h, 8 lb/acre, two weeks after treatment. Put shortly:
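Black Valentine bean was seeded in potting soil one day before spraying. Compound was applied pre-emergence at 8 lbs/acre (also 4 lbs/acre) in 38 gallons per acre. Plants were sub-irrigated and injury or control was rated visually after two weeks.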

The subject of test [9] is Crabgrass (CG). The test is described as follows: Post-emergence herbicide test. It counts as in vivo, Digitaria sanquinalis. As to conditions: Digitaria sanguinalis, post-emergence, 336 h; 8 lb/acre; two weeks after treatment. Put shortly:
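Crabgrass (Digitaria sanquinalis) was surface seeded individually in 3' plastic pots of potting soil, covered with screened soil, and watered by sub-irrigation in greenhouse trays. Planting was staggered so seedlings reached the target stage together. Post-emergence sprays were applied in a hood with a removable belt and fixed nozzle, and control was visually rated two weeks after treatment.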

Test [10] relates to Yellow foxtail grass (YF). The experiment in a line: Post-emergence herbicide test. It counts as in vivo, Setaria glauca. As to conditions: Setaria, 336 h, 8 lb/acre, two weeks after treatment. Here is the method: as §1, §2
Planting dates for the post-emergence phase were varied so that all seedlings would reach the desired stage of development simultaneously. The proper stage of seedling development for treatment in the post-emergence phase is as follows:
as §3, §4, §5, §6, §7

Test [11] relates to Johnson grass (JG). The test is described as follows: Post-emergence herbicide test. It counts as in vivo, Sorgum helepense. As to conditions: Sorghum halepense, 336 h, 8 lb/acre, two weeks after treatment. Put shortly:
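Greenhouse pot-grown seedlings sprayed post-emergence at 8 lbs compound per acre (some at 4 lbs/acre) in 38 gallons per acre spray volume. Sub-irrigated thereafter. Injury/control rated visually two weeks after treatment.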

In test [12] the test system is Barnyard grass (BG). The test is described as follows: Post-emergence herbicide test. To be noted: Echinochloa crus-galli, 336 h, 8 lb/acre, two weeks after treatment. The class given is in vivo. The gist of the method:
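Greenhouse pot-grown barnyard grass seedlings sprayed post-emergence at 8 lbs active compound per acre (some at 4 lbs/acre) in 38 gallons per acre, then sub-irrigated. Injury or control rated visually two weeks after treatment.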

In test [13] the test system is Amaranth pigweed (PW). The experiment in a line: Post-emergence herbicide test. The class given is in vivo, Amaranthus retroflexus. To be noted: 336 h, 8 lb/acre, two weeks after treatment. Put shortly: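 Pot-grown pigweed was sprayed post-emergence at the 1–2 true-leaf stage with compound at rates equivalent to 8 lbs per acre (formulations also prepared for 4 lbs/acre) in 38 gallons per acre, using a hood with fixed nozzle. Plants were sub-irrigated in the greenhouse, and injury or control was rated visually two weeks after treatment.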

For test [14], the system named is Turnip (TP). The test is described as follows: Post-emergence herbicide test. The class given is in vivo, Brassica sp. To be noted: Brassica rapa, post-emergence, 336 h; 8 lb/acre; two weeks after treatment. The gist of the method: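 A greenhouse post-emergence herbicide test on turnip. Seeds were sown on the surface of potting soil in 3' plastic pots, lightly covered with screened soil and watered from below. Planting was timed so seedlings had 1 or 2 true leaves above the cotyledons at spraying, done in a hood with a fixed nozzle. Control or injury was scored by eye after two weeks.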

Test [15] has as its system Cotton (CT). The test is described as follows: Post-emergence herbicide test. The class given is in vivo, Gossypium hirsutum var. DPL smooth leaf. As to conditions: Gossypium hirsutum, post-emergence, 336 h; 8 lb/acre; two weeks after treatment. Put shortly: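 Cotton (Gossypium hirsutum var. DPL smooth leaf) was grown in 3' plastic pots of potting soil, four seeds per pot, planted at a depth equal to the seed diameter and watered by sub-irrigation. At the stage of expanded cotyledons with the first true leaf 1' long, plants were sprayed post-emergence in a hood with a fixed nozzle over a moving belt. Percent control was rated visually two weeks later.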

Test [16] concerns Corn (CN). The test is described as follows: Post-emergence herbicide test. It counts as in vivo. As to conditions: Zea mays, 336 h, 8 lb/acre, two weeks after treatment. Put shortly:
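Greenhouse seedlings grown in potting soil and sprayed post-emergence at 8 lbs compound/acre (formulations also made for 4 lbs/acre) in 38 gallons/acre spray volume. Watering by sub-irrigation only. Injury or control rated visually two weeks after treatment.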

In test [17] the test system is Bean (BN). The experiment in a line: Post-emergence herbicide test. The class given is in vivo, Phaseolus vulgaris var. Black Valentine. As to conditions: Phaseolus vulgaris, post-emergence, 336 h; 8 lb/acre; two weeks after treatment. Put shortly:
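Snapbean (Phaseolus vulgaris var. Black Valentine) was tested post-emergence. Four seeds were sown in 3' plastic pots of potting soil at a depth equal to the seed diameter, then sub-irrigated in greenhouse trays. Planting dates were staggered so plants were sprayed once primary leaves had expanded, with the growing point at the primary leaf nodes.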

Test [18] deals with Turnip (TP). The experiment in a line: Pre-emergence herbicide test. As to conditions: Brassica rapa, pre-emergence, 336 h; 8 lb/acre; two weeks after treatment. It counts as in vivo, Brassica sp. Put shortly: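 Turnip (Brassica sp.) seeds were surface sown in 3' plastic pots of potting soil, covered with a thin layer of screened soil, and sub-irrigated in greenhouse trays. Pots were seeded one day ahead of treatment, sprayed pre-emergence under a hood with a fixed nozzle and moving belt, then kept in the greenhouse.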

As for `CSc1nnc(NC(=O)NC(C)C)s1` [Example 30], the pest or weed control at 8966.8 g/ha in the test with Crabgrass (CG) [1] amounted to 20%; in [2], 10%; in the test on Johnson grass (JG) [3], 10%; in the test with Barnyard grass (BG) [4], 10%; in the test with Amaranth pigweed (PW) [5], 10%; with Cotton (CT) [6], 10%. For the same compound, the pest or weed control at 8966.8 g/ha with Corn (CN) [7] amounted to 10%; with Bean (BN) [8], 50%; in the test on Crabgrass (CG) [9], 20%; in test [10], 20%; with Johnson grass (JG) [11], 20%; in the test on Barnyard grass (BG) [12], 20%. For the same compound, the pest or weed control at 8966.8 g/ha worked out at 50% with Amaranth pigweed (PW) [13]; 40% in the test with Turnip (TP) [14]; 70% in the test with Cotton (CT) [15]; 20% in the test with Corn (CN) [16]; 100% in the test on Bean (BN) [17].

On to `CNC(=O)Nc1nnc(-c2ccccc2)s1` [Example 34], for which the pest or weed control at 8966.8 g/ha amounted to 10% with Crabgrass (CG) [1]; 20% in test [2]; 20% in the test with Johnson grass (JG) [3]; 10% in the test on Barnyard grass (BG) [4]; 20% with Turnip (TP) [18]; 40% in the test with Cotton (CT) [6]. Also, the pest or weed control at 8966.8 g/ha in the test on Corn (CN) [7] was found to be 10%; in the test on Bean (BN) [8] it was 80%; in the test on Crabgrass (CG) [9] it was 10%; in [10], 30%; in the test with Johnson grass (JG) [11], 30%; with Barnyard grass (BG) [12] it was 10%. Moreover, the pest or weed control at 8966.8 g/ha in the test on Amaranth pigweed (PW) [13] is 20%; in the test on Turnip (TP) [14] it was 40%; in the test on Cotton (CT) [15], 50%; in the test on Corn (CN) [16], 50%; in the test on Bean (BN) [17] it was 60%.

Consider `CCCNC(=O)Nc1nnc(C(F)(F)F)s1` [Example 10], for which the pest or weed control at 8966.8 g/ha in the test with Crabgrass (CG) [1] worked out at 20%; in [2] it was 20%; in the test with Johnson grass (JG) [3], 20%; in the test with Barnyard grass (BG) [4], 10%; with Turnip (TP) [18], 10%; in the test on Cotton (CT) [6], 80%. For the same compound, the pest or weed control at 8966.8 g/ha worked out at 50% in the test with Corn (CN) [7]; 80% with Bean (BN) [8]; 50% in the test with Crabgrass (CG) [9]; 20% in [10]; 30% with Johnson grass (JG) [11]; 40% in the test on Barnyard grass (BG) [12]. The pest or weed control at 8966.8 g/ha in the test with Amaranth pigweed (PW) [13] is 100%; in the test on Turnip (TP) [14], 60%; in the test with Cotton (CT) [15], 60%; in the test on Corn (CN) [16], 40%; in the test on Bean (BN) [17], 50%.

One may read the pest or weed control as the degree to which the test organism was suppressed or injured, in per cent. Read a high pest or weed control as strong suppression.

The record behind these values is patent publication US4175081A, “5-Substituted thiadiazole ureas” (priority 1977, dated 1979).
